Results: patent publication US8865163B2, “Pharmaceutical compositions and methods of treatment” (priority 2010, dated 2014)

Legend:
Assay type in all cases: in vivo
[1] = Body mass growth of C57B1 mice on high (45%) fat diet, 2 months; conditions: for Body mass (grams): high fat diet
From the text: (§1) The test substance was in the form of an aqueous solution of ultra-low doses of polyclonal rabbit antibodies to human cannabinoid receptor type 1 (ULD anti-CB1), purified on antigen, obtained by hyper-dilution of the initial matrix solution 100^12, 100^30, 100^200 times (mixture of centesimal homeopathic dilutions C12, C30, and C200).
33 male mice of the C57B1 line were used in the study (weight at the beginning of the study: 13.09±0.738 g). The mice received the modified diet with high (45%) fat content and simultaneously either distilled water (control, 0.2 ml/mouse) or Subutramine (10 mg/Kg) or ULD anti-CB1 (0.2 ml/mouse). All ULD anti-CB1 preparations were given intragastrically once a day in the course of 2 months. The mice weight was measured on Philips Cucina HR 239016 (Hungary) electronic scales until beginning to introduce the preparations (initially) and also each week after beginning to introduce them. The body mass growth of the mice was evaluated as a percentage of the initial weight.

[2] = Feed consumption and body mass growth of C57B1 mice on high calorie diet, 5 months
From the text: as §1
40 male mice of the C57B1 line were used in the study (weight at the beginning of the study: 13.5-15.5 g). 10 mice received the regular standard feed (standard diet); 30 mice received the standard feed with high calorie additives (high calories diet) and, simultaneously, either distilled water (control, 0.4 ml/mouse) or Subutramine (Meridia 10 mg capsules, Abbott GmbH, Germany) (10 mg/Kg) or ULD anti-CB1 (0.4 ml/mouse). All preparations were given intragastrically once a day in the course of 5 months. The mice consumption of feed was measured before test substances were introduced. The mice consumption of feed was also measured each week thereafter. The consumption of feed was evaluated as an average quantity of food (in grams), consumed by a mouse after 1 and 2 months of the study, and as an average quantity of feed per 10 g of mouse body mass.

[3] = Open field test, motor activity of mice given nicotine; conditions: nicotine 0.3 mg/kg s.c. over 4 days
From the text: The effects of I) the combination of ultra-low doses of polyclonal rabbit antibodies to brain-specific protein S-100 (ULD anti-S100) and ultra-low doses of antibodies to cannabinoid receptor type 1 (ULD anti-CB1), each obtained by hyper-dilution of the initial matrix solution 100^12, 100^30, 100^200 times (mixture of centesimal homeopathic dilutions C12, C30, C200) (ULD anti-S100+ULD anti-CB1), ii) ULD anti-CB1 alone, and iii) ULD anti-S100 alone, on motor activity of mice were studied to evaluate their anti-nicotine properties.
40 white outbred male mice (22-25 g, 1.5 mo.) were used. 10 mice were intact. The rest of the mice were administered nicotine subcutaneously over 4 days at the dose of 0.3 mg/kg, Nicotine administration was preceded (1 hour prior) by intragastrical administration of either distilled water (control, 0.4 ml/mouse), or ULD anti-S100 (0.4 ml/mouse), or ULD anti-CB1 (0.4 ml/mouse), or ULD anti-S100+ULD anti-CB1 (0.4 ml/mouse). 30 minutes after the last administration of nicotine, an “open field” test was conducted. The animals were placed in the center of a TruScan photo-sensory installation (Coulbourn, USA), where the vertical and horizontal locomotor activity of the animals was automatically recorded in the course of two (2) minutes. The “open field” model makes it possible to evaluate the effect of the compounds on the locomotor activity of the animals (Gershenfield H. K., Neumann P. E., Mathis C., Crawley J. N., Li X., Paul S. M. Mapping quntative Trait Loci for Open-Field Behavior in Mice. Behavioral Genetics.—1997.—Vol. 27.—No 3.—p. 201-209, which is incorporated herein by reference in its entirety and for the purpose stated). The installation parameters: size 270×270×360 mm, divided into 64 squares, 2.5×2.5, with 25 mm openings situated in the platform floor, illumination of a 150 watt lamp.

CC(C)CC(N(C)C)C1(c2ccc(Cl)cc2)CCC1 (centres unmarked) [Subutramine]
Body mass (grams) ([1]; week 0 (initial)): 13.82 grams
Δ to initial (body mass growth, percentage of initial weight) ([1]; week 1): −2.6%
Body mass (grams) ([1]; week 1): 13.45 grams
Δ to initial (body mass growth, percentage of initial weight) ([1]; week 2): 21.1%
Body mass (grams) ([1]; week 2): 16.73 grams
Δ to initial (body mass growth, percentage of initial weight) ([1]; week 3): 43.4%
Body mass (grams) ([1]; week 3): 19.82 grams
Δ to initial (body mass growth, percentage of initial weight) ([1]; week 4): 46.1%
Body mass (grams) ([1]; week 4): 20.18 grams
Δ to initial (body mass growth, percentage of initial weight) ([1]; week 5): 51.3%
Body mass (grams) ([1]; week 5): 20.91 grams
Δ to initial (body mass growth, percentage of initial weight) ([1]; week 6): 61.8%
Body mass (grams) ([1]; week 6): 22.36 grams
Δ to initial (body mass growth, percentage of initial weight) ([1]; week 7): 71.1%
Body mass (grams) ([1]; week 7): 23.64 grams
Δ to initial (body mass growth, percentage of initial weight) ([1]; week 8): 65.8%
Body mass (grams) ([1]; week 8): 22.91 grams
Consumption of feed (g per 10 g of body mass) per day ([2]; average over 5 months, M±m): 1.28 ± 0.05 g per 10 g of body mass per da
Consumption of feed (g/mouse) per day ([2]; average over 5 months, M±m): 2.75 ± 1.36 g/mouse per day
decrease of consumption of feed in reference to the control ([2]; intragastrically once a day, in a week): 19.3%
lowered body mass in comparison with the control group ([2]; last twentieth week): 51.5%

CN1CCCC1c1cccnc1 (centres unmarked) [nicotine]
decrease of immobility time in comparison with the intact animals [3]: 13.5%
increase of activity time in comparison with the intact animals [3]: 8.2%
increase of distance traveled in comparison with the intact animals [3]: 5.1%
increase of quantity of openings investigated in comparison with the intact animals [3]: 78.2%
increase of study reaction time in comparison with the intact animals [3]: 76.9%
